Experiment [1] deals with patients with JAK2^V617F mutation suffering from myeloproliferative syndromes (PV, ET, IM). In words: Phase II open clinical study in JAK2V617F-positive Philadelphia-negative myeloproliferative syndromes. It is filed as in vivo, human. The conditions noted are these: 50 mg twice per day. The source says:
Clinical study of ITF2357 in patients suffering from Philadelphia-negative myeloproliferative syndromes. Design: phase II, open, non-randomized study.
Population in the study: 27 patients with the JAK2^V617F mutation suffering from myeloproliferative syndromes not adequately controlled by the standard pharmacological treatment (hydroxyurea).
Duration of the treatment: up to a maximum of 24 weeks of continual administration.
Secondary objective: to evaluate the effect of the treatment on the mutated JAK2 allele burden by quantitative PCR.

The subject of experiment [2] is stem cells obtained from patients suffering from PV or ET. The following applies: cited from earlier work.
The test system of experiment [3] is JAK2^V617F mutated human cell line SET-2. Kind of experiment: Cloning efficiency of the human cell line SET-2 in methyl-cellulose. It counts as cell-based. The following applies: SET-2, 336 h; for EC50: read-out: EC50 (concentration required to reduce of 50% the number of clones). The source says: For each experimental point 2 Petri dishes were done.
Experiment [4] relates to LPS-induced serum TNFα and IFNγ. The conditions noted are these: mice, oral administration of 1.0 to 10 mg/kg; cited from earlier work.
Experiment [5] relates to lipopolysaccharide (LPS)-stimulated cultured human peripheral blood mononuclear cells (PBMCs). The following applies: cited from earlier work.
For a further experiment, the target named is rhHDAC1 (Homo sapiens, UniProt Q13547). In words: biochemical.
rhHDAC1, sequence (Q13547 whole entry): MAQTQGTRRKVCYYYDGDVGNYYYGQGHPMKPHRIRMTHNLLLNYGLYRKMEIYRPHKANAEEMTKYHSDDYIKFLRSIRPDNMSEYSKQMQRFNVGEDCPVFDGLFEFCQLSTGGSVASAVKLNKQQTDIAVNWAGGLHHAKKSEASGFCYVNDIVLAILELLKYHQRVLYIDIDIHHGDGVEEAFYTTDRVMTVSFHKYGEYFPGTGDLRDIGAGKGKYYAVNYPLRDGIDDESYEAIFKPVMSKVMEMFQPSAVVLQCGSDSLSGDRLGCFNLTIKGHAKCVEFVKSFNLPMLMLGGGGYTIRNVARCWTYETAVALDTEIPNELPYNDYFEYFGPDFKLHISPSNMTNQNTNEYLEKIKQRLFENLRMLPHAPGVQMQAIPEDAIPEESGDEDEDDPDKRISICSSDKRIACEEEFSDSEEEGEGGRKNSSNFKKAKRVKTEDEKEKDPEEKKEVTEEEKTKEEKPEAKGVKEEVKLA

Structures are written as SMILES. Read-outs that look alike come from different tables or passages of the source. Where only a bound is given, the exact number is not on record here.

Method for rhHDAC1: Values for rhHDAC1 inhibition are also reported: the enzyme was obtained from BPS Biosciences (cat n. 50001) and the test was carried out using a BIOMOL kit, according to supplier instructions.

Take `CCN(CC)Cc1ccc2cc(COC(=O)Nc3ccc(C(=O)NO)cc3)ccc2c1` [ITF2357, Diethyl-[6-(4-hydroxycarbamoyl-phenylcarbamoyloxymethyl)-naphthalen-2-ylmethyl]-ammonium chloride]: the “volume of the spleen” value in experiment [1] (4 to 12 weeks, patients who initially exhibited splenomegaly) is reported as “significant reduction”. Also, in experiment [1] (preliminary data, treatment 4 to 12 weeks, PV, ET or myelofibrosis patients), the “complete or partial response, share of cases” value was “approximately 60%”. Moreover, the “concentrations inhibiting the clonogenic activity of stem cells” value in experiment [2] is “sub-micromolar”. The EC50 in experiment [3] lay within 28 to 54 nM. Also, in experiment [4], the “reduction of LPS-induced serum IFNγ” value is “more than 50%” and the “reduction of LPS-induced serum TNFα” value is on record as “more than 50%”. For the same molecule, the IC50 in experiment [5] (read-out: concentration reducing by 50% the production of interferon-γ (IFNγ)) was 25 nM. Further, the IC50 in experiment [5] (read-out: concentration reducing by 50% the release of intracellular interleukin (IL)-1α) was 12 nM.

Consider `Nc1ccccc1NC(=O)c1ccc(CNC(=O)OCc2cccnc2)cc1` [SNDX-275], for which the EC50 in experiment [3] turned out to be 1820 nM.

Consider `Nc1ccccc1NC(=O)c1ccc(CNc2nccc(-c3cccnc3)n2)cc1` [MGCD-0103], for which the EC50 in experiment [3] came to 1200 nM.

The inhibition is the drop in the measured response relative to a control, in per cent. For `CC(=O)SCC(=O)c1ccc(NS(=O)(=O)c2ccc(OCCCN(C)C)cc2)nc1` [KD-5170], the inhibition at 1 µM in experiment [3] (read-out: inhibition of clones formation at 1 μM) was < 20%. At rhHDAC1, this molecule returned an IC50 of 24 nM.
